ChEMBL document CHEMBL4804284
Active and inactive are the calls of the source. The rule behind the calls is not given here.

Experiments:
[1] = target: Serine/threonine-protein kinase VRK2 (Homo sapiens) (UniProt Q86Y07); assay: Inhibition of DNA-tagged human VRK2 assessed as percent of control at 50000 nM by qPCR analysis relative to control; design: scale not given: the % may be the effect or the level left
[2] = target: Cyclin-dependent kinase 2 homolog (Plasmodium falciparum (isolate K1 / Thailand)) (UniProt Q07785); assay: Inhibition of DNA-tagged Plasmodium falciparum PFPK5 assessed as percent of control at 50000 nM by qPCR analysis relative to control; design: scale not given: the % may be the effect or the level left
[3] = target: Bone morphogenetic protein receptor type-1B (Homo sapiens) (UniProt O00238); assay: Inhibition of DNA-tagged human BMPR1B assessed as percent of control at 50000 nM by qPCR analysis relative to control; design: scale not given: the % may be the effect or the level left
[4] = target: Ephrin type-A receptor 4 (Homo sapiens) (UniProt P54764); assay: Inhibition of DNA-tagged human EPHA4 assessed as percent of control at 50000 nM by qPCR analysis relative to control; design: scale not given: the % may be the effect or the level left
[5] = target: Mitogen-activated protein kinase kinase kinase 11 (Homo sapiens) (UniProt Q16584); assay: Inhibition of DNA-tagged human MLK3 assessed as percent of control at 50000 nM by qPCR analysis relative to control; design: scale not given: the % may be the effect or the level left
[6] = target: Tyrosine-protein kinase ABL1 (Homo sapiens) (UniProt P00519); assay: Inhibition of DNA-tagged non-phosphorylated human ABL1 assessed as percent of control at 50000 nM by qPCR analysis relative to control; design: scale not given: the % may be the effect or the level left
[7] = target: Serine/threonine-protein kinase Nek3 (Homo sapiens) (UniProt P51956); assay: Inhibition of DNA-tagged human NEK3 assessed as percent of control at 50000 nM by qPCR analysis relative to control; design: scale not given: the % may be the effect or the level left
[8] = target: Calcium/calmodulin-dependent protein kinase type II subunit beta (Homo sapiens) (UniProt Q13554); assay: Inhibition of DNA-tagged human CAMK2B assessed as percent of control at 50000 nM by qPCR analysis relative to control; design: scale not given: the % may be the effect or the level left
[9] = target: Ephrin type-A receptor 3 (Homo sapiens) (UniProt P29320); assay: Inhibition of DNA-tagged human EPHA3 assessed as percent of control at 50000 nM by qPCR analysis relative to control; design: scale not given: the % may be the effect or the level left
[10] = target: Serine/threonine-protein kinase 16 (Homo sapiens) (UniProt O75716); assay: Inhibition of DNA-tagged human STK16 assessed as percent of control at 50000 nM by qPCR analysis relative to control; design: scale not given: the % may be the effect or the level left
[11] = target: Non-receptor tyrosine-protein kinase TNK1 (Homo sapiens) (UniProt Q13470); assay: Inhibition of DNA-tagged human TNK1 assessed as percent of control at 50000 nM by qPCR analysis relative to control; design: scale not given: the % may be the effect or the level left
[12] = target: Serine/threonine-protein kinase MRCK alpha (Homo sapiens) (UniProt Q5VT25); assay: Inhibition of DNA-tagged human MRCKA assessed as percent of control at 50000 nM by qPCR analysis relative to control; design: scale not given: the % may be the effect or the level left
[13] = target: Ribosomal protein S6 kinase alpha-4 (Homo sapiens) (UniProt O75676); assay: Inhibition of DNA-tagged human C-terminal RPS6KA4 kinase domain 2 assessed as percent of control at 50000 nM by qPCR analysis relative to control; design: scale not given: the % may be the effect or the level left
[14] = system: HEL; assay: Cytotoxicity against human HEL cells at 0.1-100 uM assessed as decrease in cell viability relative to control; type: functional, cell-based
[15] = target: Serine/threonine-protein kinase PRP4 homolog (Homo sapiens) (UniProt Q13523); assay: Inhibition of DNA-tagged human PRP4 assessed as percent of control at 50000 nM by qPCR analysis relative to control; design: scale not given: the % may be the effect or the level left
[16] = target: G protein-coupled receptor kinase 4 (Homo sapiens) (UniProt P32298); assay: Inhibition of DNA-tagged human GRK4 assessed as percent of control at 50000 nM by qPCR analysis relative to control; design: scale not given: the % may be the effect or the level left
[17] = system: Receptor-type tyrosine-protein kinase FLT3 (Homo sapiens), P36888 [D835H]; assay: Inhibition of DNA-tagged human FLT3 D835H mutant assessed as percent of control at 50000 nM by qPCR analysis relative to control; design: scale not given: the % may be the effect or the level left
[18] = system: Hepatocyte growth factor receptor (Homo sapiens), P08581 [Y1235D]; assay: Inhibition of DNA-tagged human MET Y1235D mutant assessed as percent of control at 50000 nM by qPCR analysis relative to control; design: scale not given: the % may be the effect or the level left
[19] = target: Serine/threonine-protein kinase 10 (Homo sapiens) (UniProt O94804); assay: Inhibition of DNA-tagged human LOK assessed as percent of control at 50000 nM by qPCR analysis relative to control; design: scale not given: the % may be the effect or the level left
[20] = target: Serine/threonine-protein kinase 17B (Homo sapiens) (UniProt O94768); assay: Inhibition of DNA-tagged human DRAK2 assessed as percent of control at 50000 nM by qPCR analysis relative to control; design: scale not given: the % may be the effect or the level left
[21] = target: Mitogen-activated protein kinase kinase kinase 15 (Homo sapiens) (UniProt Q6ZN16); assay: Inhibition of DNA-tagged human MAP3K15 assessed as percent of control at 50000 nM by qPCR analysis relative to control; design: scale not given: the % may be the effect or the level left
[22] = target: STE20/SPS1-related proline-alanine-rich protein kinase (Homo sapiens) (UniProt Q9UEW8); assay: Inhibition of DNA-tagged human STK39 assessed as percent of control at 50000 nM by qPCR analysis relative to control; design: scale not given: the % may be the effect or the level left
[23] = target: NUAK family SNF1-like kinase 1 (Homo sapiens) (UniProt O60285); assay: Inhibition of DNA-tagged human ARK5 assessed as percent of control at 50000 nM by qPCR analysis relative to control; design: scale not given: the % may be the effect or the level left
[24] = target: Mitogen-activated protein kinase 15 (Homo sapiens) (UniProt Q8TD08); assay: Inhibition of DNA-tagged human ERK8 assessed as percent of control at 50000 nM by qPCR analysis relative to control; design: scale not given: the % may be the effect or the level left
[25] = target: Megakaryocyte-associated tyrosine-protein kinase (Homo sapiens) (UniProt P42679); assay: Inhibition of DNA-tagged human CTK assessed as percent of control at 50000 nM by qPCR analysis relative to control; design: scale not given: the % may be the effect or the level left
[26] = target: Serine/threonine-protein kinase LATS1 (Homo sapiens) (UniProt O95835); assay: Inhibition of DNA-tagged human LATS1 assessed as percent of control at 50000 nM by qPCR analysis relative to control; design: scale not given: the % may be the effect or the level left
[27] = target: Rhodopsin kinase GRK7 (Homo sapiens) (UniProt Q8WTQ7); assay: Inhibition of DNA-tagged human GRK7 assessed as percent of control at 50000 nM by qPCR analysis relative to control; design: scale not given: the % may be the effect or the level left
[28] = target: Tyrosine-protein kinase receptor Tie-1 (Homo sapiens) (UniProt P35590); assay: Inhibition of DNA-tagged human TIE1 assessed as percent of control at 50000 nM by qPCR analysis relative to control; design: scale not given: the % may be the effect or the level left
[29] = system: MV4-11; assay: Cytotoxicity against human MV4-11 cells expressing FLT3-ITD at 0.1-100 uM assessed as decrease in cell viability relative to control; type: functional, cell-based
[30] = target: Hormonally up-regulated neu tumor-associated kinase (Homo sapiens) (UniProt P57058); assay: Inhibition of DNA-tagged human HUNK assessed as percent of control at 50000 nM by qPCR analysis relative to control; design: scale not given: the % may be the effect or the level left

Mitogen-activated protein kinase 15 (Homo sapiens), sequence (Q8TD08 whole entry): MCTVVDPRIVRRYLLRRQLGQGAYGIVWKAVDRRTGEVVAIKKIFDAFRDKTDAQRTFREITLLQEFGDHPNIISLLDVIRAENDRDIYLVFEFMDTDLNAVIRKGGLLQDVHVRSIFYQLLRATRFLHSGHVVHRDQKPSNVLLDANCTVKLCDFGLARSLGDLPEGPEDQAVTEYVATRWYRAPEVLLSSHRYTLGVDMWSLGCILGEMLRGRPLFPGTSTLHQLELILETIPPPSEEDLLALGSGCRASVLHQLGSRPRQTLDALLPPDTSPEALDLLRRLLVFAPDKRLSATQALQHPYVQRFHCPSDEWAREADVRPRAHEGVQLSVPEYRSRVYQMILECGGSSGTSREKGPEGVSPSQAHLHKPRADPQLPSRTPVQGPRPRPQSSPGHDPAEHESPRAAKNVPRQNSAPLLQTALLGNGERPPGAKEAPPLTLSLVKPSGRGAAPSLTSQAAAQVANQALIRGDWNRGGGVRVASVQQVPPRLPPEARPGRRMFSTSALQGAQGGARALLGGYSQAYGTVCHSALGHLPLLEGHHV
Mitogen-activated protein kinase kinase kinase 15 (Homo sapiens), sequence (Q6ZN16 whole entry): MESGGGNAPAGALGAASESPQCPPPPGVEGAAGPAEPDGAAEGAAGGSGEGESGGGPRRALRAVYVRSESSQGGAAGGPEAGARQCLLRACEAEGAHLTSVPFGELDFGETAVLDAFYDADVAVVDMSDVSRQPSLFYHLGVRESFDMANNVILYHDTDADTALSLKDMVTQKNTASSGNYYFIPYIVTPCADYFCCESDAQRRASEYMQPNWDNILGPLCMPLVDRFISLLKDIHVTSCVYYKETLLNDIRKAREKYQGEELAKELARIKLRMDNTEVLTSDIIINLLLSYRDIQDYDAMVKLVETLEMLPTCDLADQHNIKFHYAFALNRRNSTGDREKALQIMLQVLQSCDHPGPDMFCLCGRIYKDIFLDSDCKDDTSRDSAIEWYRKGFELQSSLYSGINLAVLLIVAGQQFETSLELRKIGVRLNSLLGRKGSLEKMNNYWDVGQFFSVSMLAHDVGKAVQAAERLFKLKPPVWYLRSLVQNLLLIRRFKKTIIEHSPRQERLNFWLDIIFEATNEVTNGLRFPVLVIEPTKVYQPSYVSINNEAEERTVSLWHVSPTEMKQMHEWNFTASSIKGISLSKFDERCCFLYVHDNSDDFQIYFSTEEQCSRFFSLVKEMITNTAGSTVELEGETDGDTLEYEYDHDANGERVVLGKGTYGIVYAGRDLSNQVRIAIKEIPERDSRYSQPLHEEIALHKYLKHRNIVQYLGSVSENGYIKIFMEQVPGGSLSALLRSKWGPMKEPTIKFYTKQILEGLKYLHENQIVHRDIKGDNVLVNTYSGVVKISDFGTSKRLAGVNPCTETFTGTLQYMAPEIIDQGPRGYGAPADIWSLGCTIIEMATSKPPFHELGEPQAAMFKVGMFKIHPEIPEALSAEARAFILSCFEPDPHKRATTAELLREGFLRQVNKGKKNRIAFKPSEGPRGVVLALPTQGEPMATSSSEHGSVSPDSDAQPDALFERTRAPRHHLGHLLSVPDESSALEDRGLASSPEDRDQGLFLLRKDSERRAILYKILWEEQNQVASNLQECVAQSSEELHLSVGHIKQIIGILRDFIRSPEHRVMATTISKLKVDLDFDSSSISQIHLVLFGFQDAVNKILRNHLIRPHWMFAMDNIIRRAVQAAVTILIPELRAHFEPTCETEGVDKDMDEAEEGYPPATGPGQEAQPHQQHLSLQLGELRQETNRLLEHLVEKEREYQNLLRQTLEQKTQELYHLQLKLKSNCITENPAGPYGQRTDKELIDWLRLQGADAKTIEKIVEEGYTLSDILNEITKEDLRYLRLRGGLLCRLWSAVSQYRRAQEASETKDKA
Ribosomal protein S6 kinase alpha-4 (Homo sapiens), sequence (O75676 whole entry, looked up, the tested form may be a part): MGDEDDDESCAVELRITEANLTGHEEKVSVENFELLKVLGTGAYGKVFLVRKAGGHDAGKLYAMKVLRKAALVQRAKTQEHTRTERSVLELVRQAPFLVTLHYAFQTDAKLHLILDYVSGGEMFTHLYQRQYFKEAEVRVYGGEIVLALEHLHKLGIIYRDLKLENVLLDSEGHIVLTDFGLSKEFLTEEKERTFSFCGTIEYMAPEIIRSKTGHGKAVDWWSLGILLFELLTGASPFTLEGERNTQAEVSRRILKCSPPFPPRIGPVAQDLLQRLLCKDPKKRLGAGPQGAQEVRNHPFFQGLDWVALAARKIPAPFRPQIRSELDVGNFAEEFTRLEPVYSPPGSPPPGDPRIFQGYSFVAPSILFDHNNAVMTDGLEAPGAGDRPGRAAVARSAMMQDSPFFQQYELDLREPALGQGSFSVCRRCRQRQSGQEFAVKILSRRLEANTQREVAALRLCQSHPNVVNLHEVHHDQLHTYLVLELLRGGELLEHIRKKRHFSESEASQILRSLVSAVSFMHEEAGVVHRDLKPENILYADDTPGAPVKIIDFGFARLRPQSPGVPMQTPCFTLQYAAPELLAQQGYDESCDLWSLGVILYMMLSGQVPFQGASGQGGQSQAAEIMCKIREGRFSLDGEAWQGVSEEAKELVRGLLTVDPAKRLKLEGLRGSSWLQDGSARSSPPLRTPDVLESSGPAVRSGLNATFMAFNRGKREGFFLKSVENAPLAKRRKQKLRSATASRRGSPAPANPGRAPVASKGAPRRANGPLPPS
G protein-coupled receptor kinase 4 (Homo sapiens), sequence (P32298 whole entry, looked up): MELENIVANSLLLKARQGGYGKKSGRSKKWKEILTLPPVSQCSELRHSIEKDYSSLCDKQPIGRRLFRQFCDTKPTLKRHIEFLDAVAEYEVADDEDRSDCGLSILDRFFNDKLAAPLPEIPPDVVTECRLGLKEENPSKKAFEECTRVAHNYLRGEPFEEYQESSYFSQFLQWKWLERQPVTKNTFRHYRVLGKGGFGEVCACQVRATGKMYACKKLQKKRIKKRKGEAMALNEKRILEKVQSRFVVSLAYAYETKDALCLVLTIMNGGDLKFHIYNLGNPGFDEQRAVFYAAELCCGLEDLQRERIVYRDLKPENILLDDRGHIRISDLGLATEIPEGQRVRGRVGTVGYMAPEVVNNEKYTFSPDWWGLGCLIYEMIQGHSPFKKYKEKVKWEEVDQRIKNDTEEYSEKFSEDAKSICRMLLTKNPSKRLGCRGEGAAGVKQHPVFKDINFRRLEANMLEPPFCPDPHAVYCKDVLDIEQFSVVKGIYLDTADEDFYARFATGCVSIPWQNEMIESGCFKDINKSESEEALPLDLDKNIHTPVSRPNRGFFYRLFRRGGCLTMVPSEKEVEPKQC
Bone morphogenetic protein receptor type-1B (Homo sapiens), sequence (O00238 whole entry): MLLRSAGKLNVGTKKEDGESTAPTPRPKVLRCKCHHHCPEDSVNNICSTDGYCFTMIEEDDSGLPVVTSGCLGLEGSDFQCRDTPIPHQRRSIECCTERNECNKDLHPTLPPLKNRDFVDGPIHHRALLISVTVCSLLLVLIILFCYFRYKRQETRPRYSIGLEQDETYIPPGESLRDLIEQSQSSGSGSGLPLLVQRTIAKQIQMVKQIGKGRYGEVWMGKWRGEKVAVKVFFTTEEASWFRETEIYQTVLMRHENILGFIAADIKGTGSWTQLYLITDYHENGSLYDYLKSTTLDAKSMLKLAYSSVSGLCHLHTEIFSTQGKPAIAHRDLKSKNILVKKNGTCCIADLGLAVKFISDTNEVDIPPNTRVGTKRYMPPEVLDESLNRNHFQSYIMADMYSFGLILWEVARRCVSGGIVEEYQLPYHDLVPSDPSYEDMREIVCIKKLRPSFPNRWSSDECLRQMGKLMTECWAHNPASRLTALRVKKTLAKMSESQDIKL
Serine/threonine-protein kinase PRP4 homolog (Homo sapiens), sequence (Q13523 whole entry): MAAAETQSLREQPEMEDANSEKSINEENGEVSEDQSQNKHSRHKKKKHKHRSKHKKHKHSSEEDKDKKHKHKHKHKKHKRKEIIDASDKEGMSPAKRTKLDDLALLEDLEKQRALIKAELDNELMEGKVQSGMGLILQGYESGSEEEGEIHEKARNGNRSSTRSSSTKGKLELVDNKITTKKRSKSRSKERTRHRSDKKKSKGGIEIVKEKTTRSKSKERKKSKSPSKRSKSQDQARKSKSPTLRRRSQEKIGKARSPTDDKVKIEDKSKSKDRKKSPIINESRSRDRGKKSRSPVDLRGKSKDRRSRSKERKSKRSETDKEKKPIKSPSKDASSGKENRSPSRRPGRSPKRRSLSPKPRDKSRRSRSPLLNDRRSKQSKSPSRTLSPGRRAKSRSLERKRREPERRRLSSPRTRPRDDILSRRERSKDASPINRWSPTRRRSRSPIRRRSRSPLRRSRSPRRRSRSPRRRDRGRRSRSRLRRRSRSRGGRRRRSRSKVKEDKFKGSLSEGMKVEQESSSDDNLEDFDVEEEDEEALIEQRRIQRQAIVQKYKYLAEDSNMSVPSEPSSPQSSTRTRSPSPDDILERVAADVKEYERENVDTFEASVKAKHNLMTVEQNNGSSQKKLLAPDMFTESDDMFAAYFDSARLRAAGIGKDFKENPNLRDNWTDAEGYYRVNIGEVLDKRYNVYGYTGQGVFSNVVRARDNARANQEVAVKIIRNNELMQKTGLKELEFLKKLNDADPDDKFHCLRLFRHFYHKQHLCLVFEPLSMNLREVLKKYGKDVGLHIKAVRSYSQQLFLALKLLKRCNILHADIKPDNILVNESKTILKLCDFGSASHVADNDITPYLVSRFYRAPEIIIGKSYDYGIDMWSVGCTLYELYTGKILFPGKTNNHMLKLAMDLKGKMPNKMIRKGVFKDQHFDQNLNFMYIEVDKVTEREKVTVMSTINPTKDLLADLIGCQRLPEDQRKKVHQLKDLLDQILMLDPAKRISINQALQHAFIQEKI
Cyclin-dependent kinase 2 homolog (Plasmodium falciparum (isolate K1 / Thailand)), sequence (Q07785 whole entry): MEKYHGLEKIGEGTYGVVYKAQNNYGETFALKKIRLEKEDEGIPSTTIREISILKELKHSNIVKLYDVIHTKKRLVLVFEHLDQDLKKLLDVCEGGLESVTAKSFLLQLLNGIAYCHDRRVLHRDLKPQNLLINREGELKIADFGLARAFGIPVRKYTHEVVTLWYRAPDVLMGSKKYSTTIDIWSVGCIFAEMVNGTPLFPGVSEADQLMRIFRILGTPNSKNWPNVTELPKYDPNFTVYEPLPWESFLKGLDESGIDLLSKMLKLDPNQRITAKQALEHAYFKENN

Compound CN1C(=O)/C(=C2/C(=O)Nc3ccccc32)c2ccccc21 has an Activity [1] of 79%, an Activity [2] of 72% and an Activity [3] of 89%. For the same compound, the Activity [4] was 100%, the Activity [5] was 71% and the Activity [6] was 100%. For the same compound, the Activity [7] was 92%, the Activity [8] was 86% and the Activity [9] was 91%. The Activity [10] was 89%, the Activity [11] was 98% and the Activity [12] was 92%. For the same compound, the Activity [13] was 89%, the Activity [14] was “Active” and the Activity [15] was 89%. For the same compound, the Activity [16] was 100%, the Activity [17] was 100% and the Activity [18] was 99%. It also gave an Activity [19] of 100%, an Activity [20] of 100% and an Activity [21] of 69%. It also gave an Activity [22] of 78%, an Activity [23] of 85% and an Activity [24] of 96%. It also gave an Activity [25] of 56%, an Activity [26] of 100% and an Activity [27] of 100%. The Activity [28] was 88%, the Activity [29] was “Active” and the Activity [30] was 98%.
